Data taken from patent US20220296547A1, “METHODS AND COMPOSITIONS FOR TREATMENT OF DISEASES” (Tranexamic Technologies, LLC, priority 2020, published 2022).
Entries after “also recorded” stand apart in the source; their conditions may differ.

Legend:
S6K1 (p70s6k) = test: Ribosomal S6 protein phosphorylation; format: cell-based
Description: (§1) The N-Myc-related gene c-Myc, or MYC, is frequently overexpressed in many human cancers, including breast cancer.

MDA-MB 468 cells = test: MTT assay with tranexamic acid derivatives; format: cell-based, human; details: MDA-MB 468, 72 h, increasing concentrations
Procedure: MDA-MB 468 cells were plated at 6,250 cells per well in a 96-well plate and incubated overnight at 37° C. […] Cell viability was evaluated using an MTT assay.

[1] = target: p300 acetyltransferase enzyme (Homo sapiens, UniProt Q09472); test: p300 acetyltransferase enzyme assays (immunoblot H3K9Ac / H3K27Ac); details: two sets of enzyme assays
Procedure: This is measured by immunoblotting with antibodies that specifically recognize histone 3 (H3) acetylated (Ac) on lysine (K) number 9 or 27.

[2] = test system: HCI-001 breast cancer cells; test: MTT cell viability assay; format: cell-based
CDCP1 cleavage = CDCP1 cleavage in MDA-MB-231 breast cancer cell extracts; format: cell-based
Description: (§2) None of the treatments altered the overall pattern of protein tyrosine phosphorylation. […] Cleavage of CDCP1 may play a role in driving tumor invasion given the preferential binding of the cleaved form of CDCP1 with cell adhesion molecules such as beta1-integrin and E-cadherin.

cell cycle = test: Cell cycle study; format: cell-based
[3] = test system: SH-SY5Y neuroblastoma cells; test: MTT cell viability assay; format: cell-based
[4] = test system: AKT in MYC overexpressing MCF10A cells; test: AKT activity (phospho-AKT substrate antibody); format: cell-based, human
Description: as §1

[5] = intravenous doses of 80-100 mg/kg and above, e.g. during heart surgery; cited from earlier work
[6] = test system: programmed death-ligand 1 (PD-L1); test: PD-L1 expression (FIG. 18); format: cell-based; details: high concentration (2%)
plasmin [7] = target: T1, plasmin (Homo sapiens, UniProt P00747); details: accepted value from studies; cited from earlier work
Target sequence in this assay (P00747 20-810 limits assumed): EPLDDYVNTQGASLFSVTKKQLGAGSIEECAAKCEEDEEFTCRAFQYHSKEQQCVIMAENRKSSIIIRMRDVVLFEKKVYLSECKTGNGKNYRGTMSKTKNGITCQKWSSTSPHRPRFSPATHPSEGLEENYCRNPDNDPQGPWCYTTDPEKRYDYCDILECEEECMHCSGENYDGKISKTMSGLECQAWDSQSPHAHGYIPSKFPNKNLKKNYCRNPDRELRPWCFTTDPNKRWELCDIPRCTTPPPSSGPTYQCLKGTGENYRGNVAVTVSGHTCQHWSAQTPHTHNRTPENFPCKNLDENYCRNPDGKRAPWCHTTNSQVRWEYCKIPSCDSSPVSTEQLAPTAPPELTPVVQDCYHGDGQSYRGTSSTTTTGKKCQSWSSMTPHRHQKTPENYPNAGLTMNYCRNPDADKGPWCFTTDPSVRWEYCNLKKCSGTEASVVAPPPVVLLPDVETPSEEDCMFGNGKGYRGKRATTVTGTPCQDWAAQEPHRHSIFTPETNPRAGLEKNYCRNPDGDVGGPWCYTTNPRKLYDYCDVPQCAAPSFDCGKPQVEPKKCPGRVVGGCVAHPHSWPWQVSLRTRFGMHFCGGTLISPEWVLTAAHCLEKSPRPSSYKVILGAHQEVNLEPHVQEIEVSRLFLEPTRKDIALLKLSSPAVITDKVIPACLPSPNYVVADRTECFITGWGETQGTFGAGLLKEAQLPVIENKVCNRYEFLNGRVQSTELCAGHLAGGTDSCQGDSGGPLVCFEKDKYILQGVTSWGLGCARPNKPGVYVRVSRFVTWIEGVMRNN

[8] = test system: lysine acetylation of cellular proteins; test: Lysine acetylation of cellular proteins and histones (FIG. 8); format: cell-based
[9] = test system: histone lysine acetylation; test: Histone lysine acetylation in BT474 cells; format: cell-based
[10] = test system: broad array of cancer and epithelial cell lines; test: MTT cell viability assays with increasing concentrations (FIG. 2, FIG. 5); format: cell-based
[11] = test system: MDA-MB-468 breast cancer cells; test: Markers of the mitotic phase (cyclin B, MPM2); format: cell-based, human; details: 1%
PAI-1 = PAI-1 levels in MDA-MB-231 breast cancer cell extracts; format: cell-based; details: FIG. 6
Description: as §2

[12] = test system: BT474 breast cancer cells; test: DNA synthesis (tritiated thymidine incorporation); format: cell-based; details: 24 h treatment, 0 to 8%
[13] = test system: human keratinocytes (HaCaT); test: DNA synthesis (tritiated thymidine incorporation); format: cell-based; details: HaCaT non-transformed epithelial line; 24 h
MDA-MB-468 cells = test: MTT cell viability assay (FIG. 2); format: cell-based, human; details: MDA-MB-468, known to overexpress MYC
plasmin [14] = target: T1, plasmin; details: cited from earlier work
Target sequence in this assay (P00747 581-810 limits assumed, species assumed): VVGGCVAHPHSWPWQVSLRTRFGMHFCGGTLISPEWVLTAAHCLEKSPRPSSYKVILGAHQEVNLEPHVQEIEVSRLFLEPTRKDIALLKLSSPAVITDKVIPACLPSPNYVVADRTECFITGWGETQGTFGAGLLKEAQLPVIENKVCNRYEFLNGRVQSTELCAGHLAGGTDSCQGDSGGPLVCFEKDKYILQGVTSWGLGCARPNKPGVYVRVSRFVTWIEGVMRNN
Target sequence in this assay (P00747 97-580 partner limits assumed, species assumed): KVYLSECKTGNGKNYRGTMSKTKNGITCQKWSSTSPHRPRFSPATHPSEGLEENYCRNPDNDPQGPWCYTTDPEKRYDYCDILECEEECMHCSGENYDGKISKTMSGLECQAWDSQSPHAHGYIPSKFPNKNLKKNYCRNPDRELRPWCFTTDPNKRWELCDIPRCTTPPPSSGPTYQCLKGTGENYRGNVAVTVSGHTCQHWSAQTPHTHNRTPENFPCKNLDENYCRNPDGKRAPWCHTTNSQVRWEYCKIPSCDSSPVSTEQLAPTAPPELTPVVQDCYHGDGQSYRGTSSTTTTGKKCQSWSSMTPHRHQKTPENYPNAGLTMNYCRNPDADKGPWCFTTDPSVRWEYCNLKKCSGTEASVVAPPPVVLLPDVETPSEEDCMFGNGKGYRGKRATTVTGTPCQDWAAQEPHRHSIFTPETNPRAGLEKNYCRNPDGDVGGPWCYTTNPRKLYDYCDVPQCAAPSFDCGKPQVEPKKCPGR

histone H3 = test: Acetylation of histone H3 on lysine 27 and lysine 9; format: cell-based
[15] = test system: BT474, MDA-MB-468, B16, KPPC, HMEC and HaCaT cell lines; test: DNA synthesis (tritiated thymidine incorporation), cell line panel; format: cell-based; details: 24 h treatment, 0 to 8%, DNA synthesis during a 3 h window
STAT3 = STAT3 phosphorylation; format: cell-based
Description: as §1

[16] = test system: HCI-012/LVM2/LR10 drug-resistant, HER2+, metastatic breast cancer; test: Breast tumor growth in patient-derived model; format: in vivo, mice; details: orally, once daily, 375 mg/kg
[17] = test system: AKT in MDA-MB-468 human breast cancer cell line; test: AKT activity (phospho-AKT substrate antibody); format: cell-based
Description: as §1

[18] = test system: MCF10A cells overexpressing the MYC oncogene; test: MTT assay, MYC overexpressing versus vector control cells; format: cell-based, human
Description: as §1

[19] = test system: protein lysine acetylation in a second breast cancer cell line; test: Protein lysine acetylation over time (FIG. 10); format: cell-based; details: as early as 4 h
non-melanoma skin cancer = details: mice, long-term UV irradiation; cited from earlier work
[20] = test system: BT474 breast cancer cells; test: Markers of the mitotic phase (cyclin B, MPM2); format: cell-based; details: 1%
[21] = test system: human mammary epithelia cells (HMEC); test: DNA synthesis (tritiated thymidine incorporation); format: cell-based; details: HMEC non-transformed epithelial line; 24 h
[22] = test system: epidermal growth factor receptor (EGFR); test: EGFR expression (FIG. 8); format: cell-based

Chain of p300 acetyltransferase enzyme (Q09472 whole entry): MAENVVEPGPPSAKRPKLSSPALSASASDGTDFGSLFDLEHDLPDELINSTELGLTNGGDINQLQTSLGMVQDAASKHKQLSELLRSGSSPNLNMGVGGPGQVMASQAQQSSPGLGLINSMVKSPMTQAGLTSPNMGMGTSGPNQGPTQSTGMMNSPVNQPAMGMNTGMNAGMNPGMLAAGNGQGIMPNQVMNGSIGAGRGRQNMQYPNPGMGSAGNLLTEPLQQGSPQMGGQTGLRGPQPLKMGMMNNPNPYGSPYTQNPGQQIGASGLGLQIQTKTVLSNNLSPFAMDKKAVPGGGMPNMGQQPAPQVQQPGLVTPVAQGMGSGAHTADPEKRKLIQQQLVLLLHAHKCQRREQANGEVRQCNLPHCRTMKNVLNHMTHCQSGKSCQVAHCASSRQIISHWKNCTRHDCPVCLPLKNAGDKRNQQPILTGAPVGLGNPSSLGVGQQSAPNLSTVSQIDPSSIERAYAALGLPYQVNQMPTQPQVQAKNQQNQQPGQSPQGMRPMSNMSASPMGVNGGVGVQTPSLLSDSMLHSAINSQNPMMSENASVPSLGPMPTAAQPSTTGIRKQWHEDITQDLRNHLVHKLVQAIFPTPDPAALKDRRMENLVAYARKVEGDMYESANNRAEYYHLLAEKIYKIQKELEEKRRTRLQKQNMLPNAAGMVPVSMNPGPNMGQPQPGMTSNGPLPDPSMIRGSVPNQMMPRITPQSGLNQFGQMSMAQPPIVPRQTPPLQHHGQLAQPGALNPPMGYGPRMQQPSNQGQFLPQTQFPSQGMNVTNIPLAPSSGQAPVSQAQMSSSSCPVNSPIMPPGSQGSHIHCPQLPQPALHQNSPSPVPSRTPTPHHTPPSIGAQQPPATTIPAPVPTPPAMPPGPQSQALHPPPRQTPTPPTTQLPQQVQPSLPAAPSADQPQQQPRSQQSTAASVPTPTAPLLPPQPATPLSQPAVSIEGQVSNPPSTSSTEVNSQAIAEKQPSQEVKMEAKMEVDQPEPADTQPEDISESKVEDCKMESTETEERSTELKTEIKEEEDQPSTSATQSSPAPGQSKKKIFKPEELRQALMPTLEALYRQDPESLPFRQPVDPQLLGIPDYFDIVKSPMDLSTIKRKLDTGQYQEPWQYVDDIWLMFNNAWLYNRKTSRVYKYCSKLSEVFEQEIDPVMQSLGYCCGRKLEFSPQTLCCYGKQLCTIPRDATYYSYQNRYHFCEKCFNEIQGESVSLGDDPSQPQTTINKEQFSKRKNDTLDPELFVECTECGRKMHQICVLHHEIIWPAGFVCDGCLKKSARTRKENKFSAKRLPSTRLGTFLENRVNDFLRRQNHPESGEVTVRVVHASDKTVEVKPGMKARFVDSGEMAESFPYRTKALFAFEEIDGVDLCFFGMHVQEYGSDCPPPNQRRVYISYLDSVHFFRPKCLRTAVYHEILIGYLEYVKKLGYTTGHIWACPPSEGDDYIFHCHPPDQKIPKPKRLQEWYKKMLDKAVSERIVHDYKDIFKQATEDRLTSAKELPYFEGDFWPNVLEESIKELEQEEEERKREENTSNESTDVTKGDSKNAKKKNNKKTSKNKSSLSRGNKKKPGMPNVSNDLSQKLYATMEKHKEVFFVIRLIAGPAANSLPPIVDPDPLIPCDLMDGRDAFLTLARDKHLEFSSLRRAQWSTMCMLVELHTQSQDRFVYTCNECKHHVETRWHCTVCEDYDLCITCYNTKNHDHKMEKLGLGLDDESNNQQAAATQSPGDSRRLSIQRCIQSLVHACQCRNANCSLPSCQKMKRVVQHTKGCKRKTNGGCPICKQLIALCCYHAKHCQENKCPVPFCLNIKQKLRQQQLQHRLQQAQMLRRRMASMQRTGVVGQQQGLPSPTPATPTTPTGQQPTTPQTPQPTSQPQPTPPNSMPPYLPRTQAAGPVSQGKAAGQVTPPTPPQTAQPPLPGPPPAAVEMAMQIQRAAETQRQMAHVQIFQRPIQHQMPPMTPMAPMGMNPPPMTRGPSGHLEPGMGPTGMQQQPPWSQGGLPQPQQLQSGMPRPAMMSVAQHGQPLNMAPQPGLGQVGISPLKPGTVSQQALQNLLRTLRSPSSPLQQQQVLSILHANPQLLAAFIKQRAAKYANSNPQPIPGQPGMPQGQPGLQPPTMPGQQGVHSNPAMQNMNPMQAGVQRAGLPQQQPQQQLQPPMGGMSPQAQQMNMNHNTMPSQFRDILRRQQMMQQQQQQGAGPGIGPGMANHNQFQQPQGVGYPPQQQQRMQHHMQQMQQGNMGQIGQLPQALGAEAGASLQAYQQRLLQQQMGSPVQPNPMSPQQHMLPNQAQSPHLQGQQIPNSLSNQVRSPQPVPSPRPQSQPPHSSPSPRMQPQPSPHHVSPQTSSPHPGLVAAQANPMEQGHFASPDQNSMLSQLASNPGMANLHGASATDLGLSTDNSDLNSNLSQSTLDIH

## NC[C@H]1CC[C@H](C(=O)O)CC1 [tranexamic acid]
S6K1 (p70s6k)
  p70s6k inhibition: inhibits p70s6k
  phosphorylation of the ribosomal S6 protein: reduced phosphorylation of the ribosomal S6 protein
MDA-MB 468 cells
  cell viability (MTT): reduced MDA-MB 468 cell viability
[1]
  p300 acetyltransferase activity: inhibits p300 activity
[2]
  cell viability (MTT): decreased viability
CDCP1 cleavage; 0.5%
  CDCP1 cleavage at lowest concentration: good inhibition of CDCP1 cleavage
CDCP1 cleavage; MDA-MB-231 breast cancer cell extracts
  CDCP1 cleavage: blocks CDCP1 cleavage
Cell cycle
  cell cycle arrest: causes G2/M-phase cell cycle arrest
[3]; SH-SY5Y neuroblastoma cells
  cell viability (MTT): decreased viability
[3]; SH-SY5Y, N-Myc amplified / MYC overexpressed
  sensitivity compared to other cell lines tested (MTT): most sensitive
[4]
  AKT activity: suppressed AKT activity
[5]
  seizure risk: risk of seizure
[6]
  PD-L1 expression: did not
Plasmin [7]
  blood concentration required to inhibit formation of plasmin and provide antifibrinolysis: 10 to 20 µg/mL
[8]
  histone acetylation compared with vehicle treatment: suppressed histone acetylation
  levels of lysine acetylation of cellular proteins: reduces the levels of lysine acetylation
[9]
  effect on histone acetylation in presence of the histone deacetylase inhibitor SAHA: did not overcome the effects of the histone deacetylase inhibitor SAHA
[9]; particularly at higher concentrations
  histone lysine acetylation: suppressed histone lysine acetylation
[10]
  cell viability (MTT) across cell lines: all lines are inhibited; also recorded: dose dependently suppresses the viability
[11]
  markers of the mitotic phase of the cell cycle (cyclin B, MPM2): elevates markers of the mitotic phase
PAI-1
  PAI-1 levels / expression: without increasing PAI-1 levels
[12]
  sensitivity of DNA synthesis compared to other cell lines: most sensitive to low concentrations
[13]
  proliferation (DNA synthesis): affects the proliferation
MDA-MB-468 cells
  sensitivity compared to other cell lines tested (MTT): most sensitive
Plasmin [14]
  plasmin protease activity: directly inhibits plasmin protease activity
Histone H3; carried out by other enzymes
  acetylation of histone H3 on lysine 9: not on lysine 9
Histone H3; carried out by p300 and CBP
  acetylation of histone H3 on lysine 27: blocks acetylation
[15]
  DNA synthesis / cell proliferation across cell lines: suppresses the proliferation; also recorded: affected all the cell lines examined
STAT3
  STAT3 phosphorylation on Serine 727: not Serine 727
  STAT3 phosphorylation on Tyrosine 705: decreases STAT3 phosphorylation on Tyrosine 705
[16]
  tumor growth versus vehicle (water): suppresses tumor growth more effectively than a vehicle
[17]
  AKT activity: suppressed AKT activity
[18]
  sensitivity of MYC overexpressing cells versus unaltered control cells (MTT): significant increase in tranexamic acid sensitivity; also recorded: significantly more sensitive
[19]
  protein lysine acetylation: reduces protein lysine acetylation
non-melanoma skin cancer
  non-melanoma skin cancer development: reduced
  plasma MMP-9 and IL-6, skin plasmin, CC chemokine 2, macrophages, STAT3, cyclin D and VEGF-A: suppresses increases
[20]
  markers of the mitotic phase of the cell cycle (cyclin B, MPM2): elevates markers of the mitotic phase
[21]
  proliferation (DNA synthesis): affects the proliferation
[22]; FIG. 8
  expression of EGFR: decreases expression
[22]; FIG. 8, as worded
  EGFR downregulation: did not increase
